Here are results for 24 compounds from patent US7491710B2 (priority 2003, dated 2009).

Some targets named below: CDK2/cyclin E (Homo sapiens, UniProt P24941); human FAK (Homo sapiens, UniProt Q05397); Aurora2 kinase (Homo sapiens, UniProt O14965); human Tie2 (Homo sapiens, UniProt Q02763); human KDR enzyme (Homo sapiens, UniProt P35968).
Common to all, as to assay: biochemical

Where two headings read alike, the source gives them in different places.

Chain of human FAK (Q05397 whole entry): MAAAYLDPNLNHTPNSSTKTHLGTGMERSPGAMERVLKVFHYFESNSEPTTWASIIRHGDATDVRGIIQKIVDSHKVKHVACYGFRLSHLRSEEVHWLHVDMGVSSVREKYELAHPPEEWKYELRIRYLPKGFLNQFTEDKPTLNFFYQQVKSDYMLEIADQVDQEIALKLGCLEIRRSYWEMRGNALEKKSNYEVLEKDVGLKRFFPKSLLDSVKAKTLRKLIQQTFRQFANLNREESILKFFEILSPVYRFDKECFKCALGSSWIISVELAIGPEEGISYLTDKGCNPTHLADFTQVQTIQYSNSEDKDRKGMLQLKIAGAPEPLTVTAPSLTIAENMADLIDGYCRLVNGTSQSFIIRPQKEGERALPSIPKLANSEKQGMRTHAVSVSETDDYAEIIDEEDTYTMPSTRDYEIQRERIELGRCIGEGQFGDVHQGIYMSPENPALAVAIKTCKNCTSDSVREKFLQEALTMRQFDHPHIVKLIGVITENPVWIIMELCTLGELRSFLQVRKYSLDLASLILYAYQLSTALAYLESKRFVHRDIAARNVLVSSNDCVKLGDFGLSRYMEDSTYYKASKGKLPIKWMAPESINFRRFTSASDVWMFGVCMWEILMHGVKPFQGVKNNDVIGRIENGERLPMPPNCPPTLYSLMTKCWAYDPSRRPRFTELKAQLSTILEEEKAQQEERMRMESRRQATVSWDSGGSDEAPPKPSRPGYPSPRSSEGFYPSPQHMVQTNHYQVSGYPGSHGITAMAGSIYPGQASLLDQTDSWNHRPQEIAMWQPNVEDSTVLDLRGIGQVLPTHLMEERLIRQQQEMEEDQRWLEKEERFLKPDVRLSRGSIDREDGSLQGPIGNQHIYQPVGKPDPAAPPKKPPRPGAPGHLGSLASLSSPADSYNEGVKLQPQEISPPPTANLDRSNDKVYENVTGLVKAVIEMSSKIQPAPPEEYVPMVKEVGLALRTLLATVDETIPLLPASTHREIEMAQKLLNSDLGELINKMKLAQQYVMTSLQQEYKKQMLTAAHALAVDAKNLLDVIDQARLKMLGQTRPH
Chain of human Tie2 (Q02763 776-1124): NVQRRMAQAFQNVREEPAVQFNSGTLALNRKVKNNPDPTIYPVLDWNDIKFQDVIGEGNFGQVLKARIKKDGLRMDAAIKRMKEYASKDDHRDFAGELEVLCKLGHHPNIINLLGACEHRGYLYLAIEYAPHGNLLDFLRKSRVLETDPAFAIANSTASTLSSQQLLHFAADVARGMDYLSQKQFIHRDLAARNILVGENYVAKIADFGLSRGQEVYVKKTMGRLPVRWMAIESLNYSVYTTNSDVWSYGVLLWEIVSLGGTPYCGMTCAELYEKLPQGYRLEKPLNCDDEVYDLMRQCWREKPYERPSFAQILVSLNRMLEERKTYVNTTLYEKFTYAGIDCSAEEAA
Chain of human KDR enzyme (P35968 786-1356): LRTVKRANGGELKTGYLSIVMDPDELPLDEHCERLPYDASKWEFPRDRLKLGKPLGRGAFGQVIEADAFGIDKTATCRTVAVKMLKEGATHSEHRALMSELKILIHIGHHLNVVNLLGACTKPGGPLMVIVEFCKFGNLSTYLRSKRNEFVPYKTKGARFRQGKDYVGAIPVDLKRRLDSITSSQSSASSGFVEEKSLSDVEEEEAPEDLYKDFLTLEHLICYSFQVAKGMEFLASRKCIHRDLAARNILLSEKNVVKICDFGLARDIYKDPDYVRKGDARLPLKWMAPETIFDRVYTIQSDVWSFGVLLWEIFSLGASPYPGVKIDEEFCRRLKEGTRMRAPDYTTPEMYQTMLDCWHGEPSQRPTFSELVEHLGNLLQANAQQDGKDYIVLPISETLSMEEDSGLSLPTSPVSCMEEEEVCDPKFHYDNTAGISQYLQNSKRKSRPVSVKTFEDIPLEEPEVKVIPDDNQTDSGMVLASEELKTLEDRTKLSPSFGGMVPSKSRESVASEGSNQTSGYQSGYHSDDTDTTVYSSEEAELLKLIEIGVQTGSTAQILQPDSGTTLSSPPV
Chain of Aurora2 kinase (O14965 whole entry): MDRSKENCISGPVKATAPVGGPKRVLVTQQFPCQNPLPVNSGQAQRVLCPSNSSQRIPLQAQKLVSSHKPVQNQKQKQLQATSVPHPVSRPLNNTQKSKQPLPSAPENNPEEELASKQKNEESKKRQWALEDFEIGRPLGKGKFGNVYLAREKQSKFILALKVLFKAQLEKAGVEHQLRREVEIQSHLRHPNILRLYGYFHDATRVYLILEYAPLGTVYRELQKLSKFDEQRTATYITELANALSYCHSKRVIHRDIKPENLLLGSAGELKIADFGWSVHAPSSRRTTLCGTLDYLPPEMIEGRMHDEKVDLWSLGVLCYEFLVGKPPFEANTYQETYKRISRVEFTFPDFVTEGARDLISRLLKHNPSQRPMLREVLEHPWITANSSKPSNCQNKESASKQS

In general, IC50 refers to the point on the concentration scale where inhibition reaches its midpoint. Consider `CP(=O)(Oc1ccc2[nH]nc(/C=C/c3ccccc3)c2c1)c1ccccc1` (stereo not drawn) [Example 01, Methylphenylphosphinic acid 3-((E)-styryl)-1H-indazol-5-yl ester], for which the IC50 against CDK2/cyclin E came out at 234 nM; at human FAK it was 279 nM; at Aurora2 kinase it was 37 nM; against human Tie2 it was 40 nM; at human KDR enzyme, 158 nM.
Turning to `O=P(Oc1ccc2[nH]nc(/C=C/c3ccccc3)c2c1)(c1ccccc1)c1ccccc1` [Example 02, Diphenylphosphinic acid 3-((E)-styryl)-1H-indazol-5-yl ester], the IC50 on CDK2/cyclin E was found to be 991 nM; at human FAK it was 3530 nM; on Aurora2 kinase, 75 nM; against human Tie2, 518 nM; against human KDR enzyme, 508 nM.
Taken in the same sequence, the figures for `CP(=O)(Oc1ccc2[nH]nc(-c3cc4ccccc4[nH]3)c2c1)c1ccccc1` (stereo not drawn) [Example 03, Methylphenylphosphinic acid 3-(1H-indol-2-yl)-1H-indazol-5-yl ester] were 142 nM, 816 nM, 20 nM, 3 nM and 310 nM.
Turning to `O=P(Oc1ccc2[nH]nc(-c3cc4ccccc4[nH]3)c2c1)(c1ccccc1)c1ccccc1` [Example 04, Diphenylphosphinic acid 3-(1H-indol-2-yl)-1H-indazol-5-yl ester], the IC50 was determined as 586 nM at CDK2/cyclin E; 2900 nM on human FAK; 99 nM against Aurora2 kinase; 22 nM at human Tie2; 1630 nM at human KDR enzyme.
As to `CP(=O)(Oc1ccc2[nH]nc(-c3cc4cc(OCCN5CCOCC5)ccc4[nH]3)c2c1)c1ccccc1` (stereo not drawn) [Example 05, Methylphenylphosphinic acid 3-[5-(2-morpholin-4-ylethoxy)-1H-indol-2-yl]-1H-indazol-5-yl ester], the IC50 was 394 nM against CDK2/cyclin E; 48 nM at human FAK; 15 nM at Aurora2 kinase; 11 nM on human Tie2; 141 nM at human KDR enzyme.
In the case of `COP(=O)(Oc1ccc2[nH]nc(-c3cc4ccccc4[nH]3)c2c1)c1ccccc1` (stereo not drawn) [Example 06, Phenylphosphonic acid 3-(1H-indol-2-yl)-1-H-indazol-5-yl ester methyl ester], the IC50 turned out to be 184 nM at CDK2/cyclin E; 740 nM against human FAK; 15 nM on Aurora2 kinase; 48 nM at human Tie2; 288 nM at human KDR enzyme.
Consider `CC(C)OP(=O)(Oc1ccc2[nH]nc(-c3cc4ccccc4[nH]3)c2c1)c1ccccc1` (stereo not drawn) [Example 07, Phenylphosphonic acid 3-(1H-indol-2-yl)-1H-indazol-5-yl ester isopropyl ester], for which the IC50 stood at 959 nM on CDK2/cyclin E; 9640 nM against human FAK; 24 nM against Aurora2 kinase; 162 nM against human Tie2; 2050 nM at human KDR enzyme.
On the same counts, the results for `O=P(OCc1ccccc1)(Oc1ccc2[nH]nc(-c3cc4ccccc4[nH]3)c2c1)c1ccccc1` (stereo not drawn) [Example 08, Phenylphosphonic acid 3-(1H-indol-2-yl)-1H-indazol-5-yl ester benzyl ester] are 3700 nM, 8300 nM, 53 nM, 130 nM and 5400 nM.
Consider `COP(=O)(Oc1ccc2[nH]ncc2c1)c1ccccc1` (stereo not drawn) [Example 10, Phenylphosphonic acid 1H-indazol-5-yl ester methyl ester], for which the IC50 is > 10000 nM on CDK2/cyclin E, > 10000 nM on human FAK, 9130 nM on Aurora2 kinase and > 10000 nM on human Tie2.
As for `COP(=O)(Oc1ccc2[nH]nc(-c3ccc[nH]3)c2c1)c1ccccc1` (stereo not drawn) [Example 11, Phenylphosphonic acid methyl ester 3-(1H-pyrrol-2-yl)-1H-indazol-5-yl ester], the IC50 against CDK2/cyclin E worked out at 199 nM; at Aurora2 kinase, 90 nM; at human Tie2 it was 229 nM; against human KDR enzyme it was 1250 nM.
Taken in the same sequence, the figures for `COP(=O)(OC)c1ccc2[nH]nc(/C=C/c3ccccc3)c2c1` [Example 12, [3-((E)-styryl)-1H-indazol-5-yl]phosphonic acid dimethyl ester] were 290 nM, 140 nM, 2310 nM and 2030 nM.
The compound `COP(=O)(O)c1ccc2[nH]nc(/C=C/c3ccccc3)c2c1` [Example 13, [3-((E)-styryl)-1H-indazol-5-yl]phosphonic acid monomethyl ester] yielded an IC50 on Aurora2 kinase of 69 nM.
In the case of `CCOP(=O)(OCC)c1ccc2[nH]nc(/C=C/c3ccccc3)c2c1` [Example 14, [3-((E)-styryl)-1H-indazol-5-yl]phosphonic acid diethyl ester], the IC50 came to 780 nM against CDK2/cyclin E; 5880 nM on human FAK; 76 nM against Aurora2 kinase; 290 nM against human Tie2; 1660 nM on human KDR enzyme.
With `COP(=O)(O)c1ccc2[nH]nc(-c3cc4ccccc4[nH]3)c2c1` [Example 15, [3-(1H-Indol-2-yl)-1H-indazol-5-yl]phosphonic acid monomethyl ester], the IC50 against CDK2/cyclin E is 2260 nM; at human FAK it was > 10000 nM; against Aurora2 kinase, 108 nM; at human Tie2 it was 4080 nM; against human KDR enzyme, > 10000 nM.
In the case of `COP(=O)(O)c1ccc2[nH]nc(-c3cccs3)c2c1` [Example 16, (3-Thiophen-2-yl-1H-indazol-5-yl)phosphonic acid monomethyl ester], the IC50 is > 10000 nM on CDK2/cyclin E; > 10000 nM against human FAK; 2200 nM against Aurora2 kinase; 2210 nM against human Tie2; > 10000 nM at human KDR enzyme.
`COP(=O)(O)c1ccc2[nH]nc(-c3ccc[nH]3)c2c1` [Example 17, [3-(1H-Pyrrol-2-yl)-1H-indazol-5-yl]phosphonic acid monomethyl ester] came in with an IC50 on Aurora2 kinase of 770 nM.
Turning to `CP(C)(=O)Oc1ccc2[nH]nc(-c3cc4ccccc4[nH]3)c2c1` [Example 18, Dimethylphosphinic acid 3-(1H-indol-2-yl)-1H-indazol-5-yl ester], the IC50 against CDK2/cyclin E stood at 33 nM; against human FAK it was 7570 nM; against Aurora2 kinase, 20 nM; against human Tie2, 33 nM; against human KDR enzyme, 228 nM.
In the case of `CCOP(=O)(Oc1ccc2[nH]nc(-c3cc4nc(OC)ccc4[nH]3)c2c1)c1ccccc1` (stereo not drawn) [Example 23, Phenylphosphonic acid ethyl ester 3-(5-methoxy-1H-pyrrolo[3,2-b]pyridin-2-yl)-1H-indazol-5-yl ester], the IC50 at CDK2/cyclin E worked out at 249 nM; on Aurora2 kinase, 24 nM; on human Tie2, 30 nM; on human KDR enzyme it was 442 nM.
As to `COc1ccc2[nH]c(-c3n[nH]c4ccc(OP(=O)(OC)c5ccccc5)cc34)cc2n1` (stereo not drawn) [Example 24, phenylphosphonic acid 3-(5-methoxy-1H-pyrrolo[3,2-b]pyridin-2-yl)-1H-indazol-5-yl ester methyl ester], the IC50 is 142 nM against CDK2/cyclin E, 24 nM on Aurora2 kinase, 22 nM against human Tie2 and 364 nM on human KDR enzyme.
Take `COP(=O)(Oc1ccc2[nH]nc(/C=C/c3ccccc3)c2c1)c1ccccc1` (stereo not drawn) [Example 25, Phenylphosphonic acid methyl ester 3-styryl-1H-indazol-5-yl ester]: the IC50 at CDK2/cyclin E was 578 nM; against Aurora2 kinase it was 41 nM.
`COP(=O)(Oc1ccc2[nH]nc(-c3cc4ccccc4s3)c2c1)c1ccccc1` (stereo not drawn) [Example 26, Phenylphosphonic acid 3-benzo[b]thiophen-2-yl-1H-indazol-5-yl ester methyl ester]: the IC50 was 3240 nM at CDK2/cyclin E (read-out: CDK2 IC50) and 730 nM at Aurora2 kinase (read-out: Au2 IC50).
Consider `COP(=O)(Oc1ccc2[nH]nc(-c3cc4ccccc4s3)c2c1)c1ccccc1` (stereo not drawn) [Example 27, Phenylphosphonic acid 3-benzo[b]thiophen-2-yl-1H-indazol-5-yl ester methyl ester], for which the IC50 against CDK2/cyclin E amounted to 7560 nM; against Aurora2 kinase it was 134 nM; on human Tie2 it was 353 nM; against human KDR enzyme it was 1880 nM.
Regarding `COP(=O)(Oc1ccc2[nH]nc(-c3cc4ccccc4[nH]3)c2c1)C1CCCCC1` (stereo not drawn) [Example 32, Cyclohexylphosphonic acid 3-(1H-indol-2-yl)-1H-indazol-5-yl ester methyl ester], the IC50 at CDK2/cyclin E turned out to be 1500 nM; against Aurora2 kinase, 26 nM; on human Tie2, 119 nM; against human KDR enzyme, 999 nM.
With `O=P(O)(Oc1ccc2[nH]nc(-c3cc4ccccc4[nH]3)c2c1)c1ccccc1` [Example 33, Phenylphosphonic acid mono-[3-(1H-indol-2-yl)-1H-indazol-5-yl]ester], the IC50 against CDK2/cyclin E came to 291 nM; on human FAK it was 316 nM; on Aurora2 kinase, 10 nM; against human Tie2, 17 nM; at human KDR enzyme it was 577 nM.
